Values joined by “and” are separate entries in the source; they are usually repeats but may differ in a detail not shown here. Equal values may be shown once.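 Grown in 96-well plates, cells were treated for 48 hours with each compound at five concentrations. Insufficient inhibition: endpoint recorded as highest concentration tested. GI50: concentration for 50% inhibition of growth. TGI is the concentration that stops growth completely.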
Experiments:
Assay in all cases: NCI tumour cell line growth inhibition, 48 h
[1] = tested on: M14 melanoma
[2] = tested on: T-47D breast
[3] = tested on: HL-60(TB) leukemia
[4] = tested on: UACC-62 melanoma
[5] = tested on: PC-3 prostate
[6] = tested on: MALME-3M melanoma
[7] = tested on: TK-10 renal
[8] = tested on: HS 578T breast
[9] = tested on: HCC-2998 colon
[10] = tested on: SN12C renal
[11] = tested on: SNB-75 CNS
[12] = tested on: RPMI-8226 leukemia
[13] = tested on: SF-295 CNS
[14] = tested on: IGROV1 ovarian
[15] = tested on: OVCAR-5 ovarian
[16] = tested on: UACC-257 melanoma
[17] = tested on: OVCAR-3 ovarian
[18] = tested on: SR leukemia
[19] = tested on: NCI-H522 lung
[20] = tested on: NCI-H460 lung
[21] = tested on: OVCAR-4 ovarian
[22] = tested on: CAKI-1 renal
[23] = tested on: 786-0 renal
[24] = tested on: MDA-MB-231 breast
[25] = tested on: KM12 colon
[26] = tested on: HOP-62 NSCLC
[27] = tested on: K-562 leukemia
[28] = tested on: OVCAR-8 ovarian
[29] = tested on: NCI-H23 lung
[30] = tested on: SF-268 CNS
[31] = tested on: NCI-H226 lung
[32] = tested on: MDA-MB-435
[33] = tested on: DU-145 prostate
[34] = tested on: MOLT-4 leukemia
[35] = tested on: UO-31 renal
[36] = tested on: SF-539 CNS
[37] = tested on: BT-549 breast
[38] = tested on: SK-MEL-28 melanoma
[39] = tested on: HOP-92 NSCLC
[40] = tested on: CCRF-CEM leukemia
[41] = tested on: HT29 colon
[42] = tested on: COLO 205 colon
[43] = tested on: SK-MEL-2 melanoma
[44] = tested on: LOX IMVI melanoma
[45] = tested on: MCF7 breast
[46] = tested on: HCT-15 colon
[47] = tested on: SK-MEL-5 melanoma
[48] = tested on: SNB-19 CNS
[49] = tested on: HCT-116 colon
[50] = tested on: U251 CNS
[51] = tested on: EKVX NSCLC
[52] = tested on: ACHN renal
[53] = tested on: A549 NSCLC
[54] = tested on: SW-620 colon
[55] = tested on: A498 renal
[56] = tested on: NCI/ADR-RES ovarian
[57] = tested on: RXF 393 renal
[58] = tested on: SK-OV-3 ovarian

## CNC(=O)c1cc(Oc2ccc(NC(=O)Nc3cc(C(C)(C)C)nn3-c3ccc4ncccc4c3)c(F)c2)ccn1
[1]
  GI50: 370 nM and 395 nM
  TGI: 2490 nM and 2000 nM
[2]
  GI50: 907 nM and 1790 nM
  TGI: 7.17 µM and > 29.3 µM
[3]
  GI50: 3330 nM and 2530 nM
  TGI: 6.57 µM and 5.8 µM
[4]
  GI50: 74.3 nM and 62.4 nM
  TGI: 1620 nM and 1180 nM
[5]
  GI50: 1830 nM and 1680 nM
  TGI: 6.78 µM and 5.17 µM
[6]
  GI50: 212 nM and 53.6 nM
  TGI: 1310 nM and 500 nM
[7]
  GI50: 1830 nM and 1700 nM
  TGI: 6.79 µM and 6.93 µM
[8]
  GI50: 1140 nM and 1030 nM
  TGI: 5.42 µM and 5.03 µM
[9]
  GI50: 3.21 µM and 3.38 µM
  TGI: 7.82 µM and 7.78 µM
[10]
  GI50: 646 nM and 484 nM
  TGI: 5.74 µM and 4.68 µM
[11]
  GI50: 1090 nM and 1010 nM
  TGI: 2700 nM and 3010 nM
[12]
  GI50: 2400 nM and 2500 nM
  TGI: 6.51 µM and 5.91 µM
[13]
  GI50: 1690 nM and 1580 nM
  TGI: 8.26 µM and 5.62 µM
[14]
  GI50: 712 nM and 1260 nM
  TGI: 6.61 µM and 6.8 µM
[15]
  GI50: 2100 nM and 3340 nM
[16]
  GI50: 477 nM and 440 nM
  TGI: 5.56 µM and 3.72 µM
[17]
  GI50: 2360 nM and 2210 nM
  TGI: 7.96 µM and 6.35 µM
[18]
  GI50: 633 nM and 497 nM
  TGI: 3.91 µM and 3.85 µM
[19]
  GI50: 1780 nM and 2200 nM
  TGI: 4.91 µM and 5.31 µM
[20]
  GI50: 2060 nM and 2040 nM
  TGI: 8.11 µM and 6.93 µM
[21]
  GI50: 2380 nM and 2490 nM
  TGI: 7.74 µM and 14.5 µM
[22]
  GI50: 523 nM and 699 nM
  TGI: 4.65 µM and 4.32 µM
[23]
  GI50: 2690 nM and 3080 nM
  TGI: 8.13 µM and 8.95 µM
[24]
  GI50: 827 nM and 963 nM
  TGI: 7.12 µM and 5.78 µM
[25]
  GI50: 42.2 nM and 43.3 nM
  TGI: 5.19 µM and 5.41 µM
[26]
  GI50: 2240 nM and 2200 nM
  TGI: 7.56 µM and 7.34 µM
[27]
  GI50: 15.1 nM and 27.5 nM
  TGI: > 100 µM
[28]
  GI50: 2240 nM and 1990 nM
  TGI: 7.82 µM and 6.84 µM
[29]
  GI50: 1650 nM and 1260 nM
  TGI: 5.91 µM and 4.78 µM
[30]
  GI50: 1410 nM and 1520 nM
  TGI: 5.16 µM and 4.49 µM
[31]
  GI50: 272 nM and 822 nM
  TGI: 7.24 µM and 4.26 µM
[32]
  GI50: 587 nM and 387 nM
  TGI: 3870 nM and 1750 nM
[33]
  GI50: 2100 nM and 1800 nM
  TGI: 6.23 µM and 5.62 µM
[34]
  GI50: 1580 nM and 2080 nM
  TGI: 8.06 µM and 5.85 µM
[35]
  GI50: 1620 nM and 1780 nM
  TGI: 7.7 µM and 6.39 µM
[36]
  GI50: 2000 nM and 1710 nM
  TGI: 4.62 µM and 3.66 µM
[37]
  GI50: 1080 nM and 2270 nM
  TGI: 4.58 µM and 5.65 µM
[38]
  GI50: 264 nM and 297 nM
  TGI: 2620 nM and 2800 nM
[39]
  GI50: 460 nM and 446 nM
  TGI: 4.85 µM and 4.6 µM
[40]
  GI50: 2350 nM and 2570 nM
  TGI: 8.36 µM and > 31.6 µM
[41]
  GI50: 520 nM and 505 nM
  TGI: 3.65 µM and 5.07 µM
[42]
  GI50: 459 nM and 620 nM
  TGI: 1850 nM and 2200 nM
[43]
  GI50: 1810 nM and 2550 nM
  TGI: 4.34 µM and 5.45 µM
[44]
  GI50: 405 nM
  TGI: 2080 nM
[45]
  GI50: 1150 nM and 1050 nM
  TGI: 9.13 µM and > 53 µM
[46]
  GI50: 2010 nM and 2350 nM
  TGI: 7.3 µM and 8.53 µM
[47]
  GI50: 1350 nM and 1510 nM
  TGI: 2.86 µM and 3.14 µM
[48]
  GI50: 3.1 µM and 3.09 µM
  TGI: 8.87 µM and 7.98 µM
[49]
  GI50: 1410 nM and 1370 nM
  TGI: 7.28 µM and 5.94 µM
[50]
  GI50: 2720 nM and 2330 nM
  TGI: 8.87 µM and 7.22 µM
[51]
  GI50: 2720 nM
  TGI: 8.61 µM
[52]
  GI50: 915 nM and 475 nM
  TGI: 7.47 µM and > 23.6 µM
[53]
  GI50: 1830 nM and 1800 nM
  TGI: 7.72 µM and 6.5 µM
[54]
  GI50: 3.51 µM and 3.16 µM
  TGI: > 29.6 µM
[55]
  GI50: 1260 nM and 307 nM
  TGI: 3210 nM and 2420 nM
[56]
  GI50: 2.65 µM and 3.36 µM
  TGI: 8.39 µM and 58.4 µM
[57]
  GI50: 821 nM and 647 nM
  TGI: 2610 nM and 2050 nM
[58]
  GI50: 1590 nM and 2340 nM
  TGI: 6.59 µM and 7.8 µM
